From patent publication EP0908457B1, “3-(1,2-benzisothiazol- and isoxazol-5-Y1)-2,4(1H,3H)-pyrimidinedione or thione and 3-(1,2-benzisothiazol- and isoxazol-5-y1)-4(3H)-pyrimidinone or thione herbicidal agents” (BASF AKTIENGESELLSCHAFT, priority 1997, dated 1999) come the findings set out here.

Data set [1] has as its system Cyperus iria. As to the kind of experiment: Preemergence weed control under flooded paddy conditions, CYPIR (Rice Flatsedge). On herbicidal effect rating, CYPIR: meaning of each grade not given here. Type of data set: in vivo. To be noted: flooded paddy, rated three to four weeks after treatment; for CYPIR herbicidal effect rating: preemergence; for herbicidal effect rating, CYPIR: preemergence weeds.
Data set [2] concerns Monochoria vaginalis, Presl. As to the kind of experiment: Preemergence weed control under flooded paddy conditions, MOOVA (Monochoria). On herbicidal effect rating, MOOVA: meaning of each grade not given here. Type of data set: in vivo. To be noted: flooded paddy, rated three to four weeks after treatment; for MOOVA herbicidal effect rating: preemergence; for herbicidal effect rating, MOOVA: preemergence weeds.
Data set [3] has as its system Oryza sativa, (L.) Tebonnet. As to the kind of experiment: Rice tolerance to post-transplant applications under flooded paddy conditions (Example 187), ORYSAT (Rice, Tebonnet). To be noted: rated three to four weeks after treatment.
For data set [4], the system named is Sagittaria pygmaea, L. Nature of the data set: Preemergence weed control under flooded paddy conditions, SAGPY (Arrowhead (Pygmaea)). On herbicidal effect rating, SAGPY: meaning of each grade not given here. Type of data set: in vivo. Conditions: flooded paddy, rated three to four weeks after treatment; for SAGPY herbicidal effect rating: preemergence; for herbicidal effect rating, SAGPY: preemergence weeds.
In data set [5] the test system is Echinochloa oryzoides (Ard.) Fritsch. As to the kind of experiment: Preemergence weed control under flooded paddy conditions, ECHORC (Watergrass (Calif.)). On herbicidal effect rating, ECHORC: meaning of each grade not given here. In kind it is in vivo. Conditions: flooded paddy, rated three to four weeks after treatment.
The mark [6] stands for this setting: Rate 0.0320 kg/ha, preemergence.
[7] abbreviates: Rate 0.0620 kg/ha, preemergence.
Setting [8] is: Rate 0.1250 kg/ha, preemergence.
The mark [9] stands for this setting: Rate 0.2500 kg/ha, preemergence.

Molecules are shown by their SMILES.

On to `CNC.Cn1c(C(F)(F)F)cc(=O)n(-c2ccc3snc(COCC(=O)O)c3c2)c1=O` [Example 296, Acetic acid, {{5-[3,6-dihydro-3-methyl-2,6-dioxo-4-(trifluoromethyl)-1(2H)-pyrimidinyl]-1,2-benzisothiazol-3-yl}methoxy}-, dimethylamine salt], for which the “CYPIR herbicidal effect rating” value in data set [1] (Rate 0.0320 kg/ha) turned out to be 6.0; in data set [1] (Rate 0.0620 kg/ha) it was 7.0; in data set [1] (Rate 0.1250 kg/ha), 7.0; in data set [1] (Rate 0.2500 kg/ha), 7.0. The “MOOVA herbicidal effect rating” value in data set [2] (Rate 0.0320 kg/ha), in data set [2] (Rate 0.0620 kg/ha), in data set [2] (Rate 0.1250 kg/ha) and in data set [2] (Rate 0.2500 kg/ha) was 9.0 each time. Moreover, the “ORYSAT herbicidal effect rating” value in data set [3] (Rate 0.0320 kg/ha) was 0.0; in data set [3] (Rate 0.0620 kg/ha), 0.0; in data set [3] (Rate 0.1250 kg/ha), 0.0; in data set [3] (Rate 0.2500 kg/ha), 2.0. The “SAGPY herbicidal effect rating” value in data set [4] (Rate 0.0320 kg/ha) worked out at 0.0; in data set [4] (Rate 0.0620 kg/ha), 0.0; in data set [4] (Rate 0.1250 kg/ha), 5.0; in data set [4] (Rate 0.2500 kg/ha) it was 7.0. For the same molecule, the “ECHORC herbicidal effect rating” value was 0.0 in data set [5] (setting [6]), 0.0 in data set [5] (setting [7]), 2.0 in data set [5] (setting [8]) and 4.0 in data set [5] (setting [9]).
For `CNC.Cn1c(C(F)(F)F)cc(=O)n(-c2ccc3snc(CSCC(=O)NS(C)(=O)=O)c3c2)c1=O` [Example 298, Acetamide, 2-{{{5-[3,6-dihydro-3-methyl-2,6-dioxo-4-(trifluoromethyl)-1(2H)-pyrimidinyl]-1,2-benzisothiazol-3-yl}methyl}thio}-N-(methylsulfonyl)-, dimethylamine salt], the “herbicidal effect rating, CYPIR” value was found to be 3.0 in data set [1] (Rate 0.0320 kg/ha), 9.0 in data set [1] (Rate 0.0620 kg/ha), 9.0 in data set [1] (Rate 0.1250 kg/ha) and 9.0 in data set [1] (Rate 0.2500 kg/ha). Moreover, the “herbicidal effect rating, MOOVA” value in data set [2] (Rate 0.0320 kg/ha), in data set [2] (Rate 0.0620 kg/ha), in data set [2] (Rate 0.1250 kg/ha) and in data set [2] (Rate 0.2500 kg/ha) was 9.0 in each case. Besides, the “herbicidal effect rating ORYSAT” value in data set [3] (Rate 0.0320 kg/ha), in data set [3] (Rate 0.0620 kg/ha), in data set [3] (Rate 0.1250 kg/ha) and in data set [3] (Rate 0.2500 kg/ha) was 0.0 each time. For the same molecule, the “herbicidal effect rating, SAGPY” value in data set [4] (Rate 0.0320 kg/ha) is recorded as 0.0; in data set [4] (Rate 0.0620 kg/ha), 0.0; in data set [4] (Rate 0.1250 kg/ha) it was 3.0; in data set [4] (Rate 0.2500 kg/ha) it was 9.0. The “herbicidal effect rating, ECHORC” value is listed as 0.0 in data set [5] (Rate 0.0320 kg/ha, preemergence weeds); 0.0 in data set [5] (Rate 0.0620 kg/ha, preemergence weeds); 0.0 in data set [5] (Rate 0.1250 kg/ha, preemergence weeds); 3.0 in data set [5] (Rate 0.2500 kg/ha, preemergence weeds).
In the case of `Cn1c(C(F)(F)F)cc(=O)n(-c2ccc3snc(COCC(=O)O)c3c2)c1=O` [Example 293, Acetic acid, {{5-[3,6-dihydro-3-methyl-2,6-dioxo-4-(trifluoromethyl)-1(2H)-pyrimidinyl]-1,2-benzisothiazol-3-yl}methoxy}-], the “CYPIR herbicidal effect rating” value in data set [1] (Rate 0.0320 kg/ha), in data set [1] (Rate 0.0620 kg/ha), in data set [1] (Rate 0.1250 kg/ha) and in data set [1] (Rate 0.2500 kg/ha) was 9.0 each time. In addition, the “MOOVA herbicidal effect rating” value in data set [2] (Rate 0.0320 kg/ha), in data set [2] (Rate 0.0620 kg/ha), in data set [2] (Rate 0.1250 kg/ha) and in data set [2] (Rate 0.2500 kg/ha) was 9.0 throughout. Further, the “ORYSAT herbicidal effect rating” value in data set [3] (Rate 0.0320 kg/ha), in data set [3] (Rate 0.0620 kg/ha), in data set [3] (Rate 0.1250 kg/ha) and in data set [3] (Rate 0.2500 kg/ha) was 0.0 each time. Further, the “SAGPY herbicidal effect rating” value in data set [4] (Rate 0.0320 kg/ha) stood at 0.0; in data set [4] (Rate 0.0620 kg/ha), 0.0; in data set [4] (Rate 0.1250 kg/ha), 0.0; in data set [4] (Rate 0.2500 kg/ha) it was 6.0. Further, the “ECHORC herbicidal effect rating” value in data set [5] (setting [6]), in data set [5] (setting [7]), in data set [5] (setting [8]) and in data set [5] (setting [9]) was 0.0 each time.
`Cc1ccc(OCC(=O)OC(C)C(C)(C)C)c(-c2nsc3ccc(-n4c(=O)cc(C(F)(F)F)n(C)c4=O)cc23)c1` (centres unmarked) [Example 85, 1,2,2-Trimethylpropyl {{2-{5-[3,6-dihydro-3-methyl-2,6-dioxo-4-(trifluoromethyl)-1(2H)-pyrimidinyl]-1,2-benzisothiazol-3-yl}-p-tolyl}oxy}acetate]: the “herbicidal effect rating, ORYSAT (rice tolerance)” value (“herbicidal effect rating, ORYSAT” below) in data set [3] (0.0313 kg/ha) was found to be 0.0; in data set [3] (0.0625 kg/ha), 0.0; in data set [3] (0.1250 kg/ha) it was 0.0; in data set [3] (0.2500 kg/ha), 1.0. Moreover, the “herbicidal effect rating, ECHORC” value in data set [5] (0.0313 kg/ha, preemergence) was 8.0; in data set [5] (0.0625 kg/ha, preemergence), 9.0; in data set [5] (0.1250 kg/ha, preemergence) it was 9.0; in data set [5] (0.2500 kg/ha, preemergence), 9.0.
On to `Cc1ccc(OCC(=O)OC2CCCC2)c(-c2nsc3ccc(-n4c(=O)cc(C(F)(F)F)n(C)c4=O)cc23)c1` [Example 84, Cyclopentyl {{2-{5-[3,6-dihydro-3-methyl-2,6-dioxo-4-(trifluoromethyl)-1(2H)-pyrimidinyl]-1,2-benzisothiazol-3-yl}-p-tolyl}oxy}acetate], for which the “herbicidal effect rating, ORYSAT” value in data set [3] (0.0313 kg/ha) was found to be 3.0; in data set [3] (0.0625 kg/ha) it was 3.0; in data set [3] (0.1250 kg/ha), 4.0; in data set [3] (0.2500 kg/ha), 7.0. Moreover, the “herbicidal effect rating, ECHORC” value in data set [5] (0.0313 kg/ha, preemergence) was 9.0; in data set [5] (0.0625 kg/ha, preemergence), 9.0; in data set [5] (0.1250 kg/ha, preemergence) it was 9.0; in data set [5] (0.2500 kg/ha, preemergence), 9.0.
Regarding `CNC.Cn1c(C(F)(F)F)cc(=O)n(-c2ccc3snc(COCC(=O)NS(C)(=O)=O)c3c2)c1=O` [Example 295, Acetamide, 2-{{5-[3,6-dihydro-3-methyl-2,6-dioxo-4-(trifluoromethyl)-1(2H)-pyrimidinyl]-1,2-benzisothiazol-3-yl}methoxy}-N-(methylsulfonyl)-, dimethylamine salt], the figures for the “CYPIR herbicidal effect rating” value in data set [1] (Rate 0.0620 kg/ha), in data set [1] (Rate 0.1250 kg/ha) and in data set [1] (Rate 0.2500 kg/ha) were 0.0, 9.0 and 9.0, respectively. Besides, the “MOOVA herbicidal effect rating” value came to 0.0 in data set [2] (Rate 0.0620 kg/ha), 9.0 in data set [2] (Rate 0.1250 kg/ha) and 9.0 in data set [2] (Rate 0.2500 kg/ha). The “ORYSAT herbicidal effect rating” value in data set [3] (Rate 0.0620 kg/ha), in data set [3] (Rate 0.1250 kg/ha) and in data set [3] (Rate 0.2500 kg/ha) was 0.0 throughout. Also, the results for the “SAGPY herbicidal effect rating” value in data set [4] (Rate 0.0620 kg/ha), in data set [4] (Rate 0.1250 kg/ha) and in data set [4] (Rate 0.2500 kg/ha) were 0.0, 0.0 and 6.0, respectively. Further, the “ECHORC herbicidal effect rating” value in data set [5] (setting [7]), in data set [5] (setting [8]) and in data set [5] (setting [9]) was 0.0 throughout.
`Cn1c(C(F)(F)F)cc(=O)n(-c2ccc3snc(Br)c3c2)c1=O` [Example 36, 3-(3-Bromo-1,2-benzisothiazol-5-yl)-1-methyl-6-(trifluoromethyl)-2,4(1H,3H)-pyrimidinedione]: the “herbicidal effect rating, ORYSAT” value in data set [3] (0.0313 kg/ha), in data set [3] (0.0625 kg/ha), in data set [3] (0.1250 kg/ha) and in data set [3] (0.2500 kg/ha) was 1.0 each time. Further, the “herbicidal effect rating, ECHORC” value is reported as 0.0 in data set [5] (0.0313 kg/ha, preemergence); 0.0 in data set [5] (0.0625 kg/ha, preemergence); 0.0 in data set [5] (0.1250 kg/ha, preemergence); 0.0 in data set [5] (0.2500 kg/ha, preemergence).
For the molecule `Cn1c(C(F)(F)F)cc(=O)n(-c2ccc3snc(CP(=O)(O)O)c3c2)c1=O` [Example 92, {{5-[3,6-Dihydro-3-methyl-2,6-dioxo-4-(trifluoromethyl)-1(2H)-pyrimidinyl]-1,2-benzisothiazol-3-yl}methyl}phosphonic acid], the “herbicidal effect rating, ORYSAT” value in data set [3] (0.0313 kg/ha) is on record as 3.0; in data set [3] (0.0625 kg/ha) it was 5.0; in data set [3] (0.1250 kg/ha), 6.0; in data set [3] (0.2500 kg/ha), 6.0. In addition, the “herbicidal effect rating, ECHORC” value in data set [5] (0.0313 kg/ha, preemergence) is 4.0; in data set [5] (0.0625 kg/ha, preemergence) it was 6.0; in data set [5] (0.1250 kg/ha, preemergence), 9.0; in data set [5] (0.2500 kg/ha, preemergence), 9.0.
